Source: patent US4495188A, “Acylaminoquinazoline derivatives and a pharmaceutical composition containing them” (Sankyo Company Limited, priority 1980, dated 1985)
Structures can show the parent of a compound that is named as a salt. Where two headings read alike, the source gives them in different places. One block for each compound: values may come before it.

Tests used:
[1] = target: T1, angiotension I-converting enzyme (ACE) (Oryctolagus cuniculus, UniProt P12822); test: Measurement of inhibitory activity against the angiotension I-converting enzyme (ACE), hippuryl-l-histidyl-l-leucine as substrate; type: biochemical, rabbit
T1 construct: The ACE solution was prepared by homogenizing 5 g of acetone powders of rabbit lungs; tissue Sigma Chemical Co; host or cells: rabbit lung (acetone powder, borate buffer extract, 40,000 G supernatant)
T1 sequence (P12822 34-1310): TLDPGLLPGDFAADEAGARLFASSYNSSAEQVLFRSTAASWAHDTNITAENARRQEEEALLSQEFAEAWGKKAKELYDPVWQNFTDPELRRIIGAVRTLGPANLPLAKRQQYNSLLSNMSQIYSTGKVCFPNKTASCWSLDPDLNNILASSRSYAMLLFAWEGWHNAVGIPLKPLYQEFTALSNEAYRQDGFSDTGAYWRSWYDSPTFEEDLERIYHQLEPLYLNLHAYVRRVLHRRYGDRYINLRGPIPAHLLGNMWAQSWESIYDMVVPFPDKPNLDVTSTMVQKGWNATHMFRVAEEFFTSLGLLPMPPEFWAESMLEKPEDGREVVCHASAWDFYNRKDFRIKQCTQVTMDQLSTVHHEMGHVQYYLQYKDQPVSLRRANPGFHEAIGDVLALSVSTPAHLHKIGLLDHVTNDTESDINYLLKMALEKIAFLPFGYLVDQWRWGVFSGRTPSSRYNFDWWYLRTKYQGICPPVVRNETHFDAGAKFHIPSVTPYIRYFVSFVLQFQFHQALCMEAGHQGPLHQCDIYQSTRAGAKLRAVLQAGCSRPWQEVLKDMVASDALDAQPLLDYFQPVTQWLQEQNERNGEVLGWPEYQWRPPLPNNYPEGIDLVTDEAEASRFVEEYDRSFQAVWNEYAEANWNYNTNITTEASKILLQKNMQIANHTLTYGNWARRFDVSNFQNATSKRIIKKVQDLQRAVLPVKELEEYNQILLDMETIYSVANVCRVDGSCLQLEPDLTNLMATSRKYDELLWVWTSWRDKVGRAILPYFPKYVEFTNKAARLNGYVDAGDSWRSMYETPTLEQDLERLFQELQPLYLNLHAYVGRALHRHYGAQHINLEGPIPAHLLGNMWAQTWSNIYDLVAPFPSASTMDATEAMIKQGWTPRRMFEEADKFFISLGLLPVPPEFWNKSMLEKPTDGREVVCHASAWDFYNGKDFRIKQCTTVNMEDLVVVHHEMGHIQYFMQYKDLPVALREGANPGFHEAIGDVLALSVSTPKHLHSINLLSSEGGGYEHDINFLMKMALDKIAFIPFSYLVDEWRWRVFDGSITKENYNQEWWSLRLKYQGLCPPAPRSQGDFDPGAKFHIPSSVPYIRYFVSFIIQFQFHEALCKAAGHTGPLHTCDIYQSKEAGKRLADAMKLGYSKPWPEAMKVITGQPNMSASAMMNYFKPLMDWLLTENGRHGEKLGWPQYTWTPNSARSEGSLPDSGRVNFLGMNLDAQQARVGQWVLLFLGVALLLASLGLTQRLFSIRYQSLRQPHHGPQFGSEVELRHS
Method: The inhibitory activities of compounds of the invention and of the known compound, prazosin, against the angiotension I-converting enzyme (ACE) were measured by the method of D. W. Cushman and H. S. Cheung [Biochem. Pharmacol. 20, 637 (1971)], using hippuryl-l-histidyl-l-leucine as a substrate. The reaction mixture consisted of 225 μl of a 0.1 M borate buffer solution (pH 8.3) containing 0.4 M sodium chloride, 25 μl of the substrate (12.5 mM solution), 25 μl of a partially purified ACE and 25 μl of a test compound solution (prepared from a 1 mg/ml aqueous acetone solution of the compound). This reaction mixture was maintained at 37° C. for 30 minutes, after which 300 μl of 1N hydrochloric acid were added in order to stop the reaction. 2 ml of ehtyl acetate were then added and the mixture was stirred for 10 seconds and then centrifuged at 3,000 rpm for 5 minutes. 1.5 ml of the ethyl acetate layer was separated and concentrated by evaporation to dryness. The residue was dissolved in 1 ml of distilled water and the quantity of hippuric acid in this solution was measured from its absorbance at 228 mμ, using a spectrophotometer.
The ACE solution was prepared by homogenizing 5 g of acetone powders of rabbit lungs (a product of Sigma Chemical Co., U.S.A., prepared by homogenizing rabbit lungs in a buffer solution and separating out the enzymes precipitated with acetone) in 50 ml of a borate buffer solution (pH 8.3), centrifuging the mixture at 40,000 G for 30 minutes and then separating the supernatant.
The inhibitory activity against ACE was calculated from the formula: [formula] in which Ac is the absorbance of the control and As is the absorbance of the sample. Inhibition curves were made for each sample by measuring the inhibitory activity at five different concentrations, prepared by two-fold dilutions. The IC50 values, which are the molar concentrations of the compounds required to inhibit the ACE activity by 50%, were calculated for each compound.

hypertensive animals = conditions: reported by Cushman et al.; cited from earlier work
[2] = system: angiotensin I-converting enzyme; conditions: reported by Cushman et al.; cited from earlier work
[3] = pH 8.3, 37° C., 30 minutes, partially purified ACE from rabbit lungs, read-out: Inhibitory concentration IC50

Compound: CCOC(=O)N1CCN(c2nc(NC(=O)[C@@H]3CCCN3C(=O)[C@H](C)CSC(C)=O)c3cc(OC)c(OC)cc3n2)CC1 [Example 1, 4[1-(D-3-Acetylthio-2-methylpropanoyl)-L-prolyl]amino-2-(4-ethoxycarbonyl-1-piperazinyl)-6,7-dimethoxy-quinazoline hydrochloride hemihydrate]
IC50 [1, 3]: 416 nM

Compound: COc1cc2nc(N3CCN(C(=O)C(C)Oc4ccccc4)CC3)nc(NC(=O)[C@@H]3CCCN3C(=O)[C@H](C)CSC(C)=O)c2cc1OC (stereo partly drawn) [Example 3, 4-[1-(D-3-Acetylthio-2-methylpropanoyl)-L-prolyl]amino-6,7-dimethoxy-2[4-(2-phenoxypropionyl)-1-piperazinyl]quinazoline hydrochloride hydrate]
IC50 [1, 3]: 341 nM

Compound: COc1cc2nc(N3CCN(C(=O)c4ccco4)CC3)nc(N)c2cc1OC [prazosin, reference compound]
IC50 [1]: ≥ 10000 nM

Compound: C[C@H](CS)C(=O)N1CCC[C@H]1C(=O)O [1-(D-3-mercapto-2-methylpropanoyl)-L-proline]
antihypertensive activity (hypertensive animals): exhibits antihypertensive activity
inhibitory activity against the angiotensin I-converting enzyme [2]: potent inhibitory activity

Compound: C/C=C/C(=O)N1CCN(c2nc(NC(=O)[C@@H]3CCCN3C(=O)[C@H](C)CSC(C)=O)c3cc(OC)c(OC)cc3n2)CC1 [Example 2, 4[1-(D-3-Acetylthio-2-methylpropanoyl)-L-prolyl]amino-2-(4-crotonoyl-1-piperazinyl)-6,7-dimethoxyquinazoline. hydrochloride hydrate]
IC50 [1, 3]: 360 nM

Further lines, results first:

IC50 [1, 3]: 1410 nM
Compound: CCOC(=O)N1CCN(c2nc(NC(=O)C3CSCN3C(=O)C(C)CSC(C)=O)c3cc(OC)c(OC)cc3n2)CC1 (racemic) [Example 6, 4-[3-(DL-3-Acetylthio-2-methylpropanoyl)thiazolidine-4-carbonyl]amino-2-(4-ethoxycarbonyl-1-piperazinyl)-6,7-dimethoxyquinazoline hydrochloride hemihydrate]

IC50 [1, 3]: 261 nM
Compound: COc1ccc(C(=O)N2CCN(c3nc(NC(=O)[C@@H]4CCCN4C(=O)[C@H](C)CSC(C)=O)c4cc(OC)c(OC)cc4n3)CC2)cc1OC [Example 5, 4-[1-(D-3-Acetylthio-2-methylpropanoyl)-L-prolyl]amino-2-(4-(3,4-dimethoxybenzoyl)-1-piperazinyl]-6,7-dimethoxy-quinazoline hydrochloride sesquihydrate]

IC50 [1, 3]: 310 nM
Compound: COc1cc2nc(N3CCN(C(=O)c4ccco4)CC3)nc(NC(=O)[C@@H]3CCCN3C(=O)[C@H](C)CSC(C)=O)c2cc1OC [Example 7, 4-[1-(D-3-Acetylthio-2-methylpropanoyl)-L-prolyl]amino-2-[4-(2-furoyl)-1-piperazinyl]-6,7-dimethoxyquinazoline.hydrochloride.hydrate]

IC50 [1, 3]: 445 nM
Compound: COc1cc2nc(N3CCN(C(=O)c4ccc(OCc5ccccc5)cc4)CC3)nc(NC(=O)[C@@H]3CCCN3C(=O)[C@H](C)CSC(C)=O)c2cc1OC [Example 4, 4-[1-(D-3-Acetylthio-2-methylpropanoyl)-L-prolyl]amino-2-[4-(4-benzyloxybenzoyl)-1-piperazinyl]-6,7-dimethoxy-quinazcline hydrochloride sesquihydrate]
